Test results as given in patent US20250340552A1, “COMPOUNDS, COMPOSITIONS AND METHODS OF TREATING DISORDERS” (HOTSPOT THERAPEUTICS, INC., priority 2022, published 2025).
Like-named read-outs stand apart in the source and are kept apart here.

Target: T1, Cbl-B (Homo sapiens, UniProt Q13191)
T1 construct: MSD-Based Assay for Degradation of Cbl-B in THP-1 Cells; endogenous in cells; host or cells: THP-1 (title) / Jurkat (protocol text)
Assay: MSD-based assay for degradation of Cbl-B in THP-1 cells
Format: cell-based
Procedure, shortened: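 Reported Dmax bins are A >70%, B 50–70%, C 30–50% and D <30%, from an electrochemiluminescence (MSD) sandwich assay of Cbl-B in cell lysates. THP-1 cells were exposed to compounds for 24 hours before lysis.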

[1] = Cbl-B degradation, Jurkat cells seeded (heading: THP-1 cells), 24 hours incubation, MSD readout
[2] = Cbl-B degradation, Jurkat cells seeded (heading: THP-1 cells), 24 hours incubation, MSD readout, read-out: Dmax

T1 sequence (Q13191 whole entry): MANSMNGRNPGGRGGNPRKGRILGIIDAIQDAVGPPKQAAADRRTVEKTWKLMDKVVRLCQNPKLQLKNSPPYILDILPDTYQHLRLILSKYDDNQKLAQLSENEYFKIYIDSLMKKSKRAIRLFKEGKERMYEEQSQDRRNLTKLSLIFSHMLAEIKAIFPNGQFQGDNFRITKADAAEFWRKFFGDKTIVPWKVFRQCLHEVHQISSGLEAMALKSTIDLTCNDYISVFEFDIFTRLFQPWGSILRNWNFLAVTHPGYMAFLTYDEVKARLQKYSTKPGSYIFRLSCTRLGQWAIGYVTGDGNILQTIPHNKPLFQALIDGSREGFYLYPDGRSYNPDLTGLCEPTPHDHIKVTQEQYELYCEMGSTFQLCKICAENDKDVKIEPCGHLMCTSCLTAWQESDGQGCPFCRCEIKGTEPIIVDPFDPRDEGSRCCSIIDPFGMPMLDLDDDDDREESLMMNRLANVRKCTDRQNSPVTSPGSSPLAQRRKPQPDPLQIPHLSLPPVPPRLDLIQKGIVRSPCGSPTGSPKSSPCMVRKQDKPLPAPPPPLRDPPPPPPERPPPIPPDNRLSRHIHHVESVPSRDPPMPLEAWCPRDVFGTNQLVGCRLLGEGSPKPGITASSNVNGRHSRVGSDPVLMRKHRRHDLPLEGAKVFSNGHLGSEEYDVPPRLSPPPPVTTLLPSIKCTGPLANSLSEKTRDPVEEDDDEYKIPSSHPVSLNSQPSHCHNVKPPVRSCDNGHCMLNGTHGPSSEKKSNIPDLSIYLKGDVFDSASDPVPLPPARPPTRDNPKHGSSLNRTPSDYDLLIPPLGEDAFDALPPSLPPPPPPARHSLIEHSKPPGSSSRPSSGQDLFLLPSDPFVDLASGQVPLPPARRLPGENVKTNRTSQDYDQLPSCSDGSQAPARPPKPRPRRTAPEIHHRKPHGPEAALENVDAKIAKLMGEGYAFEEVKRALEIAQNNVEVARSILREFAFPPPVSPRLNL

SMILES	DC50 [1]	Dmax [2]	Dmax (THP-1)
Cn1cnnc1[C@@H](c1cccc(-n2cc3c(C(F)(F)F)cc(CN4CCC(C5CCN(C(=O)c6ccc(N7CCN(c8ccc9c(c8)CN([C@H]8CCC(=O)NC8=O)C9=O)CC7)cc6)CC5)CC4)cn3c2=O)c1)C1CCC1 (single isomer, unassigned) [Compound 162]	< 30 nM	> 70%	
Cn1cnnc1[C@@H](c1cccc(-n2cc3c(C(F)(F)F)cc(CN4CCC[C@@H](OC5CCN(C(=O)c6ccc(N7CCN(c8ccc9c(c8)CN([C@@H]8CCC(=O)NC8=O)C9=O)CC7)cc6)CC5)C4)cn3c2=O)c1)C1CCC1 (single isomer, unassigned) [Compound 171]	< 30 nM	50 to 70%	
Cn1cnnc1[C@@H](c1cccc(-n2cc3c(C(F)(F)F)cc(CN4CCC[C@@H](OC5CCN(C(=O)c6ccc(N7CCN(c8ccc9c(c8)CN([C@H]8CCC(=O)NC8=O)C9=O)CC7)cc6)CC5)C4)cn3c2=O)c1)C1CCC1 (single isomer, unassigned) [Compound 172]	< 30 nM	> 70%	
Cn1cnnc1[C@@H](c1cccc(-n2cc3c(C(F)(F)F)cc(CN4CCC(OCCOCc5ccc(CC6CCN(c7ccc8c(c7)CN([C@@H]7CCC(=O)NC7=O)C8=O)CC6)cc5)CC4)cn3c2=O)c1)C1CCC1 (single isomer, unassigned) [Compound 173]	1000 to 10000 nM		30 to 50%
Cn1cnnc1[C@@H](c1cccc(-n2cc3c(C(F)(F)F)cc(CN4CCC(OCCOCc5ccc(CC6CCN(c7ccc8c(c7)CN([C@H]7CCC(=O)NC7=O)C8=O)CC6)cc5)CC4)cn3c2=O)c1)C1CCC1 (single isomer, unassigned) [Compound 174]	< 30 nM	> 70%	
Cn1cnnc1[C@@H](c1cccc(-n2cc3c(C(F)(F)F)cc(CN4CCC(CC(=O)N5CCC(C6CCN(c7ccc8c(c7)CN([C@@H]7CCC(=O)NC7=O)C8=O)CC6)CC5)CC4)cn3c2=O)c1)C1CCC1 (single isomer, unassigned) [Compound 177]	300 to 1000 nM	30 to 50%	
Cn1cnnc1[C@@H](c1cccc(-n2cc3c(C(F)(F)F)cc(CN4CCC(CC(=O)N5CCC(C6CCN(c7ccc8c(c7)CN([C@H]7CCC(=O)NC7=O)C8=O)CC6)CC5)CC4)cn3c2=O)c1)C1CCC1 (single isomer, unassigned) [Compound 178]	< 30 nM	> 70%	
CN(CCC1CCN(Cc2cc(C(F)(F)F)c3cn(-c4cccc([C@H](c5nncn5C)C5CCC5)c4)c(=O)n3c2)CC1)C(=O)c1ccc(N2CCN(c3ccc4c(c3)CN([C@@H]3CCC(=O)NC3=O)C4=O)CC2)cc1 (single isomer, unassigned) [Compound 185]	30 to 300 nM	50 to 70%	
Cn1cnnc1[C@@H](c1cccc(N2Cc3c(cc(CN4CCC[C@H](OCc5ccc(CC6CCN(c7ccc8c(c7)CN([C@@H]7CCC(=O)NC7=O)C8=O)CC6)cc5)C4)cc3C(F)(F)F)C2=O)c1)C1CCC1 (single isomer, unassigned) [Compound 189]	> 10000 nM	< 30%	

Second part, led by results:

DC50 [1]	SMILES	Dmax [2]	Dmax (THP-1)
< 30 nM	CN(CCC1CCN(Cc2cc(C(F)(F)F)c3cn(-c4cccc([C@H](c5nncn5C)C5CCC5)c4)c(=O)n3c2)CC1)C(=O)c1ccc(N2CCN(c3ccc4c(c3)CN([C@H]3CCC(=O)NC3=O)C4=O)CC2)cc1 (single isomer, unassigned) [Compound 186]	> 70%	
> 10000 nM	Cn1cnnc1[C@@H](c1cccc(-n2cc3c(C(F)(F)F)cc(CN4CCC[C@H](OCc5ccc(CC6CCN(c7ccc8c(c7)CN([C@@H]7CCC(=O)NC7=O)C8=O)CC6)cc5)C4)cn3c2=O)c1)C1CCC1 (single isomer, unassigned) [Compound 187]		
300 to 1000 nM	Cn1cnnc1[C@@H](c1cccc(-n2cc3c(C(F)(F)F)cc(CN4CCC[C@H](OCc5ccc(CC6CCN(c7ccc8c(c7)CN([C@H]7CCC(=O)NC7=O)C8=O)CC6)cc5)C4)cn3c2=O)c1)C1CCC1 (single isomer, unassigned) [Compound 188]		
1000 to 10000 nM	Cn1cnnc1[C@@H](c1cccc(-n2cc3c(C(F)(F)F)cc(CN4CCC[C@@H](OCc5ccc(CC6CCN(c7ccc8c(c7)CN([C@H]7CCC(=O)NC7=O)C8=O)CC6)cc5)C4)cn3c2=O)c1)C1CCC1 (single isomer, unassigned) [Compound 192]		
